Data published in patent US20110152090A1, “HERBICIDAL COMPOSITIONS COMPRISING FLUFENACET” (Bayer CropScience AG, priority 2009, published 2011).

How the values were obtained:
Assay type in all cases: in vivo
POAAN (Poa annua) [1] = assay: Greenhouse trial: PE soil application vs incorporation into the soil (test methods 1, 3); conditions: g of AS/ha: (A) 90, (B) 1200, (C) 90, (D) 300
Procedure: (§1) In the standard design of the test, seeds of various broad-leaved weed and weed grass biotypes (origins) were sown in a 8-13 cm diameter pot filled with natural soil of a standard field soil (loamy silt; non-sterile) and covered with a covering soil layer of about 1 cm. The pots were then cultivated in a greenhouse (12-16 h of light, temperature day 20-22° C., night 15-18° C.) until the time of application. The pots were treated on a laboratory track sprayer with spray liquors comprising the compositions according to the invention, mixtures of the prior art or components used individually. Application of the active compounds or active compound combinations formulated as WG, WP, EC or otherwise was carried out at the appropriate growth stages of the plants. The application rate for the spray application was 100-600 l of water/ha. After the treatment, the plants were returned to the greenhouses.
(§2) About 3 weeks after the application, the soil action or/and foliar action was assessed visually according to a scale of 0-100% in comparison to an untreated comparative group: 0%=no noticeable effect compared to the untreated comparative group; 100%=full effect compared to the untreated comparative group.
(§3) (notes: the term “seeds” also includes vegetative propagation forms such as, for example, rhizome pieces; abbreviations used: h light=hours of illumination, g of AS/ha=gram of active substance per hectare, l/ha=liter per hectare, S=sensitive, R=resistant) • 1. Pre-emergence action against weeds: seeds of various broad-leaved weed and weed grass biotypes (origins) were sown in a 8-13 cm diameter pot filled with natural soil of a standard field soil (loamy silt; non-sterile) and covered with a covering soil layer of about 1 cm. The pots were then cultivated in a greenhouse (12-16 h of light, temperature day 20-22° C., night 15-18° C.) until the time of application. The pots were treated at the BBCH stage 00-10 of the seeds/plants on a laboratory track sprayer with spray liquors comprising the compositions according to the invention, mixtures or components used individually, as WG, WP, EC or other formulations. The application rate for the spray application was 100-600 l of water/ha. After the treatment, the plants were returned to the greenhouses and, when required, treated with fertilizer and watered. • 2. Post-emergence action against weeds: seeds of various broad-leaved weed and weed grass biotypes (origins) were sown in a 8-13 cm diameter pot filled with natural soil of a standard field soil (loamy silt; non-sterile) and covered with a covering soil layer of about 1 cm. The pots were then cultivated in a greenhouse (12-16 h of light, temperature day 20-22° C., night 15-18° C.) until the time of application. The pots were treated at various BBCH stages between 11-25 of the seeds/plants, i.e. generally between two to three weeks after the start of the cultivation, on a laboratory track sprayer with spray liquors comprising the compositions according to the invention, mixtures or components used individually, as WG, WP, EC or other formulations. The application rate for the spray application was 100-600 l of water/ha. After the treatment, the plants were returned to the greenhouses and, when required, treated with fertilizer and watered. • 3. Pre-emergence action against weeds with and without incorporation of active compound: seeds of various broad-leaved weed and weed grass biotypes (origins) were sown in a 8-13 cm diameter pot filled with natural soil of a standard field soil (loamy silt; non-sterile). […]

STEME (Stellaria media) [2] = assay: as above; conditions: g of AS/ha: (A) 90, (B) 1200, (C) 90, (D) 300
Procedure: as §1, §2, §3

[3] = test system: TRZAS (Triticum aestivum, summer wheat); assay: Greenhouse trial: crop selectivity, PE soil application vs incorporation (test methods 3, 4); conditions: g of AS/ha: (A) 90, (B) 1200, (C) 90, (D) 300
Procedure: as §1
About 3 weeks after the application, the soil action or/and foliar action was assessed visually according to a scale of 0-100% in comparison to an untreated comparative group: 0%=no noticeable effect compared to the untreated comparative group; 100%=full effect compared to the untreated comparative group. […]

[4] = test system: APESV (Apera Spica-venti); assay: Greenhouse trial: PO application (test method 2); conditions: g of AS/ha: (A) 120, (B) 1600, (C) 120
Procedure: as §1, §2, §3

POAAN (Poa annua) [5] = assay: Greenhouse trial: PO application (test method 2); conditions: g of AS/ha: (A) 120, (B) 1600, (C) 120
Procedure: as §1, §2, §3

STEME (Stellaria media) [6] = assay: Greenhouse trial: PO application (test method 2); conditions: g of AS/ha: (A) 120, (B) 1600, (C) 120
Procedure: as §1, §2, §3

[7] = test system: HORVS (Hordeum vulgare, summer barley); assay: Greenhouse trial: selective PO action (test method 5); conditions: PO application; g of AS/ha: (A) 120, (B) 1600, (C) 120
Procedure: as §1, §2
(§4) (notes: the term “seeds” also includes vegetative propagation forms such as, for example, rhizome pieces; abbreviations used: h light=hours of illumination, g of AS/ha=gram of active substance per hectare, l/ha=liter per hectare, S=sensitive, R=resistant) • 1. Pre-emergence action against weeds: seeds of various broad-leaved weed and weed grass biotypes (origins) were sown in a 8-13 cm diameter pot filled with natural soil of a standard field soil (loamy silt; non-sterile) and covered with a covering soil layer of about 1 cm. The pots were then cultivated in a greenhouse (12-16 h of light, temperature day 20-22° C., night 15-18° C.) until the time of application. […]

AVEFA (Avena fatua) [8] = assay: Greenhouse trial: pre-sowing application vs PE application (test method 6)
Procedure: as §1, §2, §3

LOLPE (Lolium perenne) [9] = assay: as above
Procedure: as §1, §2, §3

[10] = test system: HORVS (Hordeum vulgare, summer barley); assay: Greenhouse trial: pre-sowing application vs PE application (test method 6), crop, PE part; conditions: PE application; g of AS/ha: (A) 90, (B) 1200, (C) 90
Procedure: as §1, §2, §4

[11] = test system: TRZAS (Triticum aestivum, summer wheat); assay: Greenhouse trial: pre-sowing application vs PE application (test method 6), crop, pre-sowing part; conditions: application 7 days prior to sowing; g AS/ha: (A) 90, (B) 1200, (C) 90
Procedure: as §1, §2, §4

AVEFA (Avena fatua) [12] = assay: Greenhouse trial: different irrigation systems (test method 7); conditions: g of AS/ha: (A) 120, (B) 1200, (C) 90
Procedure: as §1, §2, §3

LOLPE (Lolium perenne) [13] = assay: as above; conditions: g of AS/ha: (A) 120, (B) 1200, (C) 90
Procedure: as §1, §2, §3

[14] = test system: MATCH (Matricaria chamomilla); assay: as above; conditions: g of AS/ha: (A) 120, (B) 1200, (C) 90
Procedure: as §1, §2, §3

LOLPE (Lolium perenne) [15] = assay: Greenhouse trial: different soil types (test method 8); conditions: g of AS/ha: (A) 120, (B) 1200, (C) 90
Procedure: as §1, §2, §3

[16] = test system: MATCH (Matricaria chamomilla); assay: as above; conditions: g of AS/ha: (A) 120, (B) 1200, (C) 90
Procedure: as §1, §2, §3

[17] = test system: HORVS (Hordeum vulgare, summer barley); assay: Greenhouse trial: different soil types (test method 8), crop; conditions: g AS/ha: (A) 120, (B) 1200, (C) 90
Procedure: as §1, §2, §3

[18] = test system: LOLSS (Lolium species), sensitive and resistant; assay: Greenhouse trial: resistant biotypes, PE application (test method 9); conditions: g of AS/ha: (A) 90, (B) 1200, (C) 90, iodosulfuron 10
Procedure: as §1, §2, §3

[19] = test system: MATCH (Matricaria chamomilla), sensitive and resistant; assay: as above; conditions: g of AS/ha: (A) 90, (B) 1200, (C) 90, iodosulfuron 10
Procedure: as §1, §2, §3

[20] = test system: STEME (Stellaria media), sensitive and resistant; assay: as above; conditions: g of AS/ha: (A) 90, (B) 1200, (C) 90, iodosulfuron 10
Procedure: as §1, §2, §3

[21] = test system: APESV (Apera Spica-venti); assay: Greenhouse trial: different sowing depths, PE application (test method 10); conditions: g of AS/ha: (A) 90, (B) 1200, (C) 90
Procedure: as §1, §2, §3

[22] = test system: MATCH (Matricaria chamomilla); assay: as above; conditions: g of AS/ha: (A) 90, (B) 1200, (C) 90
Procedure: as §1, §2, §3

[23] = PE application, g of AS/ha: (A) 90, (B) 1200, (C) 90
[24] = application 7 days prior to sowing, g AS/ha: (A) 90, (B) 1200, (C) 90

## O=C(Nc1ccc(F)cc1F)c1cccnc1Oc1cccc(C(F)(F)F)c1 [(C) diflufenican, N-(2,4-difluorophenyl)-2-[3-(trifluoromethyl)phenoxy]-3-pyridinecarboxamide]
POAAN (Poa annua) [1]; PE application
  activity POAAN (visual scale 0-100%): 70%
POAAN (Poa annua) [1]; incorporation into the soil
  activity POAAN (visual scale 0-100%): 92%
STEME (Stellaria media) [2]; PE application
  activity STEME (visual scale 0-100%): 50%
STEME (Stellaria media) [2]; incorporation into the soil
  activity STEME (visual scale 0-100%): 95%
[3]; PE application
  activity on crop TRZAS (visual scale 0-100%): 0%
[3]; incorporation into the soil
  activity on crop TRZAS (visual scale 0-100%): 30%
[4]
  activity APESV (visual scale 0-100%): 5%
POAAN (Poa annua) [5]
  activity POAAN (visual scale 0-100%): 5%
STEME (Stellaria media) [6]
  activity STEME (visual scale 0-100%): 30%
[7]
  activity on crop HORVS (visual scale 0-100%): 5%
AVEFA (Avena fatua) [8]; [23]
  activity AVEFA (visual scale 0-100%): 30%
AVEFA (Avena fatua) [8]; [24]
  activity AVEFA (visual scale 0-100%): 10%
LOLPE (Lolium perenne) [9]; [23]
  activity LOLPE (visual scale 0-100%): 20%
LOLPE (Lolium perenne) [9]; [24]
  activity LOLPE (visual scale 0-100%): 10%
[10]
  activity on crop HORVS (visual scale 0-100%): 5%
[11]
  activity on crop TRZAS (visual scale 0-100%): 5%
AVEFA (Avena fatua) [12]; irrigation from above
  activity AVEFA (visual scale 0-100%): 50%
AVEFA (Avena fatua) [12]; irrigation from below
  activity AVEFA (visual scale 0-100%): 30%
LOLPE (Lolium perenne) [13]; irrigation from above
  activity LOLPE (visual scale 0-100%): 20%
LOLPE (Lolium perenne) [13]; irrigation from below
  activity LOLPE (visual scale 0-100%): 20%
[14]; irrigation from above
  activity MATCH (visual scale 0-100%): 0%
[14]; irrigation from below
  activity MATCH (visual scale 0-100%): 50%
LOLPE (Lolium perenne) [15]; IU soil
  activity LOLPE IU soil (visual scale 0-100%): 45%
LOLPE (Lolium perenne) [15]; IU/EC73 soil
  activity LOLPE IU/EC73 soil (visual scale 0-100%): 0%
[16]; IU soil
  activity MATCH IU soil (visual scale 0-100%): 40%
[16]; IU/EC73 soil vs IU soil
  Difference of the soil types, MATCH: −5%
[16]; IU/EC73 soil
  activity MATCH IU/EC73 soil (visual scale 0-100%): 35%
[17]; IU soil
  activity on crop HORVS IU soil (visual scale 0-100%): 0%
[17]; IU/EC73 soil
  activity on crop HORVS IU/EC73 soil (visual scale 0-100%): 0%
[18]; resistant biotype
  activity LOLSS resistant (visual scale 0-100%): 20%
[18]; sensitive biotype
  activity LOLSS sensitive (visual scale 0-100%): 80%
[19]; resistant biotype
  activity MATCH resistant (visual scale 0-100%): 30%
[19]; sensitive biotype
  activity MATCH sensitive (visual scale 0-100%): 30%
[20]; resistant biotype
  activity STEME resistant (visual scale 0-100%): 50%
[20]; sensitive biotype
  activity STEME sensitive (visual scale 0-100%): 70%
[21]; sowing depth 5 mm
  activity APESV 5 mm (visual scale 0-100%): 5%
[21]; sowing depth 20 mm
  activity APESV 20 mm (visual scale 0-100%): 5%
[22]; sowing depth 5 mm
  activity MATCH 5 mm (visual scale 0-100%): 60%
[22]; sowing depth 20 mm
  activity MATCH 20 mm (visual scale 0-100%): 70%
